Data: patent US12319655B2, “RAF kinase inhibitors and methods of use thereof” (Deciphera Pharmaceuticals, LLC, priority 2021, dated 2025)

Tests used:
Miapaca-2 cells = test: MiaPaca-2 Combination Cell proliferation Assay (1) with cobimetinib; format: cell-based; details: MiaPaca-2 cell proliferation, read-out: MiaPaca-2 Combo (1) IC50
Method: MiaPaca-2 Combination Cell proliferation Assay (1)
Miapaca-2 cells (catalog #CRL-1420) are obtained from the American Type Culture Collect (ATCC, Manassas, VA). Briefly, cells were grown in DMEM supplemented with 10% characterized fetal bovine serum (Invitrogen, Carlsbad, CA), 2.5% New Zealand sourced horse serum and 1% Penicillin/Streptomycin/L-Glutamine at 37° C., 5% CO2, and 95% humidity. Cells are expanded until reaching 70-95% confluency at which point they are subcultured or harvested for assay use. A serial dilution of test compound was dispensed into multiple 96-well black clear bottom plates in triplicate. A serial dilution of complete growth medium containing cobimetinib was prepared at twice the final concentration and 100 μL was dispensed across the test compound titration in triplicate. Three thousand cells are added per well in 100 μL complete growth medium in each 96-well plate. Plates are incubated for 67-72 hours at 37° C., 5% CO2, and 95% humidity. At the end of the incubation, 40 μL of a 440 μM solution of resazurin (Sigma, St. Louis, MO) in PBS is added to each well of the plate and plates are incubated for an additional 5-7 hours at 37° C., 5% CO2, and 95% humidity. Plates are read on a Synergy2 or equivalent reader (Biotek, Winooski VT) using an excitation of 540 nm and an emission of 600 nm. Drug synergy was assessed via BLISS analysis in the Combenefit software (Cancer Research UK Cambridge Institute, Cambridge, UK). Data is analyzed using Prism software (Graphpad, San Diego, CA) to calculate IC50 values. Shifts in test compound IC50 values are reported from top-constrained combination therapy curves.

WM3629 cells = test: WM3629 Cell Proliferation Assay (1); format: cell-based
Method: WM3629 Cell Proliferation Assay (1)
WM3629 cells (#WM3629-01-0001) are obtained from Rockland Immunochemicals Inc (Gilbertsville, PA). Briefly, cells were grown in MCDB 153 medium (Sigma, #M7403, St. Louis, MO) supplemented with 20% Leibovitz's L-15 (ThermoFisher #11415-064, Waltham, MA), 2% heat inactivated fetal bovine serum (ThermoFisher, #A3840001, Waltham, MA), 5 μg/mL Insulin (Bovine Pancreas) (Sigma, #10516, St. Louis, MO), 1.68 mM Calcium Chloride (Sigma, #C-34006, St. Louis, MO) and 1% Penicillin/Streptomycin/L-Glutamine (ThermoFisher #10378016, Waltham, MA) at 37° C., 5% CO2, and 95% humidity. Cells are expanded until reaching 70-95% confluency at which point they are subcultured or harvested for assay use. A serial dilution of test compound is dispensed into a 96-well black clear bottom plate in triplicate. Four thousand five hundred cells are added per well in 200 μL complete growth medium in the 96-well plate. Plates are incubated for 67-72 hours at 37° C., 5% CO2, and 95% humidity. At the end of the incubation, 40 μL of a 440 μM solution of resazurin (Sigma, #199303, St. Louis, MO) in PBS is added to each well of the plate and plates are incubated for an additional 6-7 hours at 37° C., 5% CO2, and 95% humidity. Plates are read on a Synergy2 or equivalent reader (Biotek, Winooski VT) using an excitation of 540 nm and an emission of 600 nm. Data is analyzed using Prism software (GraphPad, San Diego, CA) to calculate IC50 values.

Structure (SMILES) | IC50 (Miapaca-2 cells) | IC50 (WM3629 cells)
CC(=O)Nc1cc(-c2cc(-c3cc(NC(=O)c4ccnc(C(F)(F)F)c4)ccc3C)cc(N3CCOCC3)n2)ccn1 [Example 15] | ≤ 100 nM | –
CC(=O)Nc1cc(-c2cc(-c3cc(NC(=O)c4ccnc(C(C)(C)C#N)c4)ccc3C)ccn2)ccn1 [Example 19] | ≤ 100 nM | –
Cc1ccc(NC(=O)c2ccnc(C(C)(C)F)c2)cc1-c1ccnc(-c2ccnc(NC(=O)C3CC3)c2)n1 [Example 186] | – | ≤ 100 nM
Cc1ccc(NC(=O)c2ccnc(C3(C#N)CC3)c2)cc1-c1nccc(-c2ccnc(NC(=O)C3CC3)c2)n1 [Example 187] | – | ≤ 100 nM
Cc1ncc(NC(=O)c2ccnc(C(C)(C)C#N)c2)cc1-c1ccnc(-c2ccnc(NC(=O)C3CC3)c2)n1 [Example 193] | ≤ 100 nM | –
Cc1cc(-c2cc(NC(=O)C3CC3)ncn2)cc(-c2cc(NC(=O)c3ccnc(C(C)(C)C#N)c3)ccc2C)c1 [Example 212] | – | ≤ 100 nM
CNC(=O)c1cc(-c2cc(-c3cc(NC(=O)c4ccnc(C(C)(C)F)c4)ccc3C)ccn2)ccn1 [Example 214] | 100 to 500 nM | ≤ 100 nM
Cc1ncc(NC(=O)c2ccnc(C(C)(C)C#N)c2)cc1-c1cccc(-c2ccnc(NC(=O)C3CC3)c2)c1 [Example 222] | ≤ 100 nM | ≤ 100 nM
Cc1ccc(NC(=O)c2ccnc(C(C)(C)C#N)c2)cc1-c1cncc(-c2cc(NC(=O)C3CC3)ncn2)c1 [Example 224] | ≤ 100 nM | ≤ 100 nM
COC(=O)Nc1cc(-c2cccc(-c3cc(NC(=O)c4ccnc(C(C)(C)C#N)c4)cnc3C)c2)ncn1 [Example 225] | ≤ 100 nM | –
Cc1ccc(NC(=O)c2ccnc(C3CC3)c2)cc1-c1ccnc(-c2ccnc(NC(=O)C3CC3)c2)n1 [Example 229] | – | ≤ 100 nM
Cc1ccc(NC(=O)c2ccnc(C(C)(C)C#N)c2)cc1-c1cnnc(-c2ccnc(NC(=O)C3CC3)c2)c1 [Example 230] | ≤ 100 nM | –
Cc1ccc(NC(=O)c2ccnc(C(C)(C)C#N)c2)cc1-c1cc(-c2ccnc(NC(=O)C3CC3)c2)cnn1 [Example 245] | ≤ 100 nM | ≤ 100 nM
Cc1ncc(NC(=O)c2ccnc(C(C)(C)F)c2)cc1-c1cccc(-c2cc(NC(=O)C3CC3)ncn2)c1 [Example 249] | ≤ 100 nM | ≤ 100 nM
Cc1ncc(NC(=O)c2ccnc(C(C)(C)C#N)c2)cc1-c1ccnc(-c2ccnc(NC(=O)C3CC3)c2)c1 [Example 251] | ≤ 100 nM | –
CNC(=O)c1cc(-c2cc(-c3cc(NC(=O)c4ccnc(C(C)(C)OC)c4)ccc3C)ccn2)ccn1 [Example 264] | – | ≤ 100 nM
COC(C)(C)c1cc(C(=O)Nc2cnc(C)c(-c3cccc(-c4cc(NC(=O)C5CC5)ncn4)c3)c2)ccn1 [Example 274] | ≤ 100 nM | ≤ 100 nM
Cc1ncc(NC(=O)c2cnn(C(C)(C)C)c2)cc1-c1cccc(-c2cc(NC(=O)C3CC3)ncn2)c1 [Example 279] | ≤ 100 nM | –

More lines, main results first:

IC50 (Miapaca-2 cells) | Structure (SMILES) | IC50 (WM3629 cells)
100 to 500 nM | CCOc1cc(-c2cc(NC(=O)c3ccnc(C(F)(F)F)c3)ccc2C)cc(-c2ccnc(NC(=O)C3CC3)c2)n1 [Example 12] | –
100 to 500 nM | Cc1ccc(NC(=O)c2ccnc(C(F)F)c2)cc1-c1ccnc(-c2ccnc(NC(=O)C3CC3)c2)n1 [Example 189] | –
100 to 500 nM | Cc1ccc(NC(=O)c2ccnc(C(C)(C)C#N)c2)cc1-c1cccc(-c2cc(NC(=O)C3(C)CC3)ncn2)c1 [Example 197] | –
≤ 100 nM | Cc1ccc(NC(=O)c2ccnc(C(C)(C)C#N)c2)cc1-c1cccc(-c2ccnc(NC(=O)C3CC3)c2)c1 [Example 223] | –
100 to 500 nM | CNC(=O)c1cc(-c2cncc(-c3cc(NC(=O)c4ccnc(C(C)(C)C#N)c4)ccc3C)c2)ncn1 [Example 235] | ≤ 100 nM
100 to 500 nM | Cc1ccc(NC(=O)c2ccnc(C(C)(C)C#N)c2)cc1-c1ccnc(-c2ccnc(NC(=O)C3(C#N)CC3)c2)n1 [Example 241] | –
≤ 100 nM | Cc1ccc(NC(=O)c2ccnc(C(C)(C)C#N)c2)cc1-c1ccnc(-c2ccnc(NC(=O)C3CC3)c2)n1 [Example 257] | –
100 to 500 nM | CNC(=O)c1cc(-c2cc(-c3cc(NC(=O)c4ccnc(C5(C#N)CC5)c4)ccc3C)ccn2)ccn1 [Example 265] | –
